Literature values as cited in US12102684B2, “Methods of making and using polyphenols complexed with a protein, peptide, amino acid, polysaccharide, disaccharide, or monosaccharide” (priority 2016, dated 2024).

What was measured:
[1] = previous studies

Oc1ccc(/C=C/c2cc(O)cc(O)c2)cc1 [Resveratrol, 3,5,4′-trihydroxy-trans-stilbene]
solubility in organic solvents (organic solvents (methanol, acetone, DMSO, etc.)): 16-50 grams/liter | solubility in water: 0.03 grams/liter

COc1cc(/C=C/C(=O)CC(=O)/C=C/c2ccc(O)c(OC)c2)ccc1O [curcumin, (1E,6E)-1,7-bis(4hydroxy-3-methoxyphenyl)hepta-1,6-diene-3,5-dione]
solubility in water: very poor | oral clearance [1]: 108.5 L/kg/h

COc1cc([C@@H]2Oc3c(O)cc([C@H]4Oc5cc(O)cc(O)c5C(=O)[C@@H]4O)cc3[C@H]2CO)ccc1O [Silychristin]
solubility in water: water insoluble
